Structures can show the parent of a compound that is named as a salt.

By melting point is commonly meant the temperature of the solid-liquid transition.

Compound `O=C(c1ccc(-c2ccncc2)nc1)N1CCN(S(=O)(=O)c2cc3cc(Cl)ccc3[nH]2)CC1` (as salt: hydrochloride) [Example 1, 1-(5-Chloroindol-2-ylsulphonyl)-4-[6-(4-pyridyl)nicotinoyl]piperazine] had a melting point of 186 to 190 °C.

(Values after US6723723B1, “Heterocyclic derivatives as inhibitors of factor Xa” (AstraZeneca, priority 1999, dated 2004).)
